Key:
[1] = system: Bone marrow of WT or LXRαβKO mice; assay: Bone marrow dendritic cell differentiation (GM-CSF) from WT or LXRαβKO mice in presence of DDA; format: cell-based, mouse
Description: FIGS. 11A-B. Bone marrow was isolated from the tibia and femur of WT or LXRαβKO mice and cultivated with 20 ng/ml GM-CSF and in presence of increasing concentrations of DDA. At day 3 and 5 half of medium was replaced by fresh medium containing GM-CSF. After 7 days of culture, the percentage of (A) differentiated CD11c+CD8a dendritic cell (B) mature CD11c+CD8a+ dendritic cells (CD11c+CD8a+CD86hi CCR7hi) was measured by flow cytometry and expressed relative to the control.
FIG. 12. Bone marrow was isolated from the tibia and femur of WT or LXRαβKO mice and cultivated with 20 ng/ml GM-CSF and in presence of increasing concentrations of DDA. At day 3 and 5 half of medium was replaced by fresh medium containing GM-CSF. After 7 days of culture, the mean of florescence (MFI) of MHC class II expressed on the surface of CD11c dendritic cells: CD11c+H2db+ was measured by flow cytometry and expressed relative to the control.

[2] = system: human and murine mammary tumor cells; assay: Exosome secretion of mammary tumor cells treated with DDA; format: cell-based; details: data not shown
B16F10 cells = assay: Multivesicular bodies and exosome secretion of B16F10 cells treated with DDA; format: cell-based, mouse
[3] = system: Unpolarized Th0 (from naive CD4 T cells of C57BL/6 mice); assay: Unpolarized Th0 cells cultured with DDA, flow cytometry; format: cell-based, mouse
Description: FIGS. 3A-D. Unpolarized Th0 (prepared from naive CD4 T cells isolated from the spleen of C57BL/6 mice were cultivated in presence of anti-CD3, anti-CD28 and recombinant IL-2 as indicated in the “Materials and methods” section”) and with gradual concentration of DDA added at day 0 of culture (condition #1) or Day 4 of culture (condition #2). At the end, for each condition, the percentage of Th1 (CD4+Tbet+IFNg+) (A,B) and Treg CD4+Foxp3+IL10+ (C,D) was measured by flow cytometry.
Immune cell culture. Isolated CD4+ or CD8+ T cells were cultures in 96-well flat bottom plates (0.25×10^6 cells per wells) in 0.25 ml of complete RPMI 1640 media (10% FBS, 1% penicillin/Streptomycin, 1% sodium pyruvate, 1% HEPES and 50 μM b-mercaptoethanol) in the presence of 10 μg/ml plate-bound anti-mouse CD3 (2C11) and 2 μg/ml soluble α-CD28 (LEAF) in addition to 50 ng/ml of recombinant IL-2 (e-bioscience). DDA (synthesized by Affichem) diluted in the solvent vehicle was added at increasing concentration (0-1-10-100 and 1000 nM). […] After 5 days of culture, cells were collected and analyzed by flow cytometry. To investigate the impact of DDA on polarization of CD4 or CD8 naive T cells, DDA or the solvent vehicle was added at the beginning of culture at Day 0 or at Day 4 and cells was analyzed at day 5 by flow cytometry.

tumor side lymph nodes = assay: T cells in tumor side lymph nodes after DDA, flow cytometry; format: in vivo, mouse
Description: FIGS. 20A-C. The priming of T cells inside tumor side lymph node is dependent of the LXR expressed by tumor cells. Animals were grafted with tumor cells and treated as described in FIG. 2. At the end of the experiments, tumor side lymph nodes (mesenteric, auxiliary and brachial) were collected, dissociated and stimulated in vitro with 50 ng/ml of PMA (Sigma), 500 ng/ml Ionomycin (Sigma) and 1/1000 of golgi stop (ebiosicence) during 3 h at 370 to analyze by flow cytometry the phenotype of T cells. (A-C) The dots in the graphs represent the relative number of (A) T regulatory cells (CD4+ Foxp3+), (B) Th1 CD4+ cells (CD4+ T-bet+) and (C) cytotoxic CD8+ T cells (CD8+ Granzym B+ IFNγ+). The vehicle was normalized to 1. Graphs are representative of three independent experiments.
Organ dissociation and flow cytometry. The tumor-side lymph nodes were dissociated manually while for the tumor, gentlemac technology (Miltenyi) was used. Then, the suspension of tumor cells or lymph node were stimulated with 50 ng/ml of PMA (Sigma), 500 ng/ml Ionomycin (Sigma) and 1/1000 of golgi stop (ebiosicence) during 3 h at 37° C. After that, the single cell suspension were stained with the indicated fluorescent-labelled antibodies: anti mouse α-CD4, α-CD8, α-T-bet, α-Foxp3, α-granzyme B, α-PD-1, α-CD44, α-Ly6C, α-Ly6G, α-CD11b, α-CD11c, α-CD206 IL10, α-CD86 as well as live/dead stain purchased from eBioscience or Biolegend. Intracellular staining for T-bet, Foxp3, and Granzyme B, was performed according the manufacturer's protocol from Biolegend. To set the gates, flow cytometry dot plots were based on comparison with isotype control. Flow cytometry measurements of single-cells suspension were performed on a Fortessa 20X (BD pharmingen) and data were analyzed using FlowJo software.

[4] = system: E0771 sh control or E0771 sh LXR tumors; assay: Tumor growth and survival, E0771 sh control or E0771 sh LXR tumors, DDA treatment; format: in vivo, mouse
Description: FIGS. 13A-B. Tumor growth analysis (A) Exponentially growing E0771 sh control or E0771 sh LXR cells were collected, washed twice in PBS and resuspended in PBS (300,000 cells in 100 μl PBS). […] mice were grafted subcutaneously with 300 000 E0771 sh control or E0771 sh LXR tumor cells. […] At day 15 of treatment with DDA or the solvent vehicle, the tumors were removed and the immune cells infiltrated into the tumors were analyzed by flow cytometry (see FIG. 14).
FIGS. 16A-C. The control of tumor growth and the increase in animal survival upon DDA treatment are dependent on the LXRβ expressed in tumor cells. […] The animals were monitored over time for (A) tumor growth and (B) animal survival. (C) Tumor weights were measured at the end of the experiment.

[5] = WT, 7 days of culture (FIG. 11)
[6] = E0771 expressing LXRβ, 0.37 μg/kg DDA IP every two days (FIG. 16)

## CC(C)CCCC(C)[C@H]1CCC2C3C[C@@H](NCCc4cnc[nH]4)[C@@]4(O)C[C@@H](O)CC[C@]4(C)C3CC[C@@]21C (stereo partly drawn) [DDA, 5a-hydroxy-6b-[2-(1H-imidazol-4-yl)ethylamino]cholestan-3b-ol]
[1]; 1 μM DDA, WT (FIG. 12)
  MHC II expression at the surface of CD11c dendritic cells: increases
[1]; [5]
  differentiation of CD11c into CD11c CD8a+ dendritic cells: increases
  maturation of CD11c CD8a+ dendritic cells (CD86hi CCR7hi): increases
[1]; in absence of LXR (LXRαβKO)
  effect on MHC II expression at the surface of CD11c dendritic cells: abrogated
  effect on differentiation and maturation of CD11c CD8a+ dendritic cells: abolished
[2]
  production of exosome secreted into the media: also observed
B16F10 cells; data not shown
  production of exosome secreted into the media: 1.5 to 2 fold
B16F10 cells; electronic microscopy
  amount of multivesicular bodies (MVB): stimulates
[3]; unpolarized Th0, DDA at day 0 or day 4 (FIG. 3)
  Th0 into Th1 differentiation: does not activated
[3]; unpolarized Th0, DDA at day 0 or day 4, more impressive at day 4 (FIG. 3)
  differentiation of Th0 into Treg phenotype: inhibits
Tumor side lymph nodes; 0.37 μg/kg DDA (FIG. 20)
  number of Th1CD4+ cells infiltrated into tumor side lymph nodes: increases
  number of Treg cells infiltrated into tumor side lymph nodes: decreases
  number of cytotoxic CD8 T cells infiltrated into tumor side lymph nodes: increases
Tumor side lymph nodes; shLXRβ vs LXRβ expressing tumors (FIG. 20)
  LXRβ dependence of priming of T cells inside tumor side lymph nodes: dependent of the LXRβ
[4]; [6]
  animal survival: increases animal survival
  tumor growth: inhibits tumor growth
[4]; E0771 sh LXR, 0.37 μg/kg DDA every 2 days (FIG. 13)
  effect on growth of tumors: abolished
[4]; E0771 sh control, 0.37 μg/kg DDA every 2 days (FIG. 13)
  growth of tumors: significantly controls the growth
